Experimental data published in US7855192B2, “Macrolactams by engineered biosynthesis” (Kosan Biosciences, Inc., priority 2007, dated 2010).
Like-named read-outs stand apart in the source and are kept apart here.

How the values were obtained:
[1] = test system: NCI-H596; assay: cells; conditions: Homo sapiens, NCI-H596, read-out: Inhibitory Concentration IC50, NQO1 deficient cancer cells
Description: (§1) The ability of the macrolactams of this invention to inhibit the growth of cancer cells was evaluated using the procedure of Patel, supra. […] SKOV3 is a human ovarian cancer cell line. […] MV-4-11 is yet another human leukemia cell line (acute myeloid leukemia or AML). […] Where an assay was performed multiple times, the range of values measured is given.
(§2) As noted above, geldanamycin derivatives in the quinone oxidation state are dependent on the enzyme NQO1 to reduce them to their hydroquinone derivatives for enhanced activity as Hsp90 inhibitors. However, some cancer cells are deficient in NQO1 activity and thus unable to effect the quinone-to-hydroquinone conversion.

[2] = test system: MDA-468; assay: cells; conditions: read-out: Inhibitory Concentration IC50, NQO1 deficient cancer cells
Description: as §1, §2

[3] = test system: NCI-ADR; assay: cells; conditions: Homo sapiens, NCI/ADR-RES, read-out: Inhibitory activity against cancer cells IC50
Description: as §1

[4] = test system: SKBr3; assay: cells; conditions: Homo sapiens
Description: as §1

[5] = test system: MX-1; assay: cells; conditions: Homo sapiens, MX1, read-out: Inhibitory activity against cancer cells IC50
Description: as §1

[6] = test system: MCF-7; assay: cells; conditions: Homo sapiens
Description: as §1

[7] = test system: HCT-116; assay: cells; conditions: Homo sapiens, HCT-116, read-out: Inhibitory activity against cancer cells IC50
Description: as §1

[8] = test system: RPMI-8226; assay: cells; conditions: Homo sapiens, RPMI-8226, read-out: Inhibitory activity against cancer cells IC50
Description: as §1

[9] = test system: HT-29; assay: cells; conditions: Homo sapiens, HT-29, read-out: Inhibitory activity against cancer cells IC50
Description: as §1

[10] = test system: K-562; assay: cells; conditions: Homo sapiens, K562, read-out: Inhibitory activity against cancer cells IC50
Description: as §1

[11] = test system: MV-4-11; assay: cells; conditions: Homo sapiens, MV4-11, read-out: Inhibitory activity against cancer cells IC50
Description: as §1

[12] = test system: BT-474; assay: cells; conditions: Homo sapiens, BT-474, read-out: Inhibitory activity against cancer cells IC50
Description: as §1

[13] = test system: SKOV3; assay: cells; conditions: Homo sapiens, SK-OV-3, read-out: Inhibitory activity against cancer cells IC50
Description: as §1

[14] = test system: COLO 205; assay: cells; conditions: Homo sapiens, COLO 205, read-out: Inhibitory activity against cancer cells IC50
Description: as §1

[15] = test system: SKBr3 and MCF7 cancer cells; conditions: with versus without dicoumarol (NQO1 inhibitor)
[16] = test system: Hsp70; assay: Induction of Hsp70 in SKBr3 cells as marker of Hsp90 inhibition; assay type: cell-based, human; conditions: SKBr3 cells continuously exposed to 1 μM test compound
From the text: The activity of macrolactams of this invention as Hsp90 inhibitors was confirmed by monitoring the effect of exposure to them on an Hsp90 client protein and a protein induced upon Hsp90 inhibition. […]. The procedure used was that described in Munster et al., Cancer Research 2002, 62, 3132-3137.
[…]. Heat shock protein-70 (“Hsp70”), another protein that performs a chaperone function, is a protein that is induced upon inhibition of Hsp90 (Brodsky & Chiosis, Curr. Topics Med. Chem. 2006, 6 (11), 1215-1225). Thus, the induction of Hsp70 can be used as a marker for the inhibition of Hsp90. […]. GAPDH is an enzyme involved in glycolysis and is expressed constitutively in all cells and is a marker of choice as a loading control in Western Blotting experiments.)

[17] = SK-BR-3, read-out: Inhibitory Activity IC50, no dicoumarol added
[18] = SK-BR-3, read-out: Inhibitory activity against cancer cells IC50
[19] = MCF7, read-out: Inhibitory activity against cancer cells IC50

Structure (SMILES)	IC50 [1] [nM]	IC50 [2] [nM]	IC50 [3] [nM]	IC50 ([4]; SK-BR-3, read-out: Inhibitory Activity IC50, dicoumarol added) [nM]	IC50 [4, 17] [nM]	IC50 [4, 18] [nM]	IC50 [5] [nM]	IC50 ([6]; MCF7, read-out: Inhibitory Activity IC50, dicoumarol added) [nM]	IC50 ([6]; MCF7, read-out: Inhibitory Activity IC50, no dicoumarol added) [nM]	IC50 [6, 19] [nM]	IC50 [7] [nM]	IC50 [8] [nM]	IC50 [9] [nM]	IC50 [10] [nM]	IC50 [11] [nM]	IC50 [12] [nM]	IC50 [13] [nM]	IC50 [14] [nM]	Change of Hsp90 inhibitory activity in the presence of dicoumarol [15]	Induction of Hsp70, gel picture FIG. 5 [16]
COC1CC/C=C(\C)C(=O)Nc2cc(F)c(O)c(c2)C[C@@H](C)C[C@H](OC)[C@H](O)[C@@H](C)/C=C(\C)[C@@H]1OC(N)=O (stereo partly drawn) [III-d]	310	100	3200 to 5000	69	42	34 to 80	66	161	112	73 to 160	280 to 290	66	110	290	31 to 32	80	230 to 237	38	remained substantially unchanged	Hsp70 was induced
C=CCNC1=C2C[C@@H](C)C[C@H](OC)[C@H](O)[C@@H](C)/C=C(\C)[C@H](OC(N)=O)[C@@H](OC)/C=C\C=C(/C)C(=O)NC(=CC1=O)C2=O [Compound 17-AAG, 17-allylamino-17-demethoxygeldanamycin, reference compound]																				Hsp70 was induced
CO[C@H]1C[C@H](C)Cc2cc(ccc2O)NC(=O)/C(C)=C/CC[C@H](OC)[C@@H](OC(N)=O)/C(C)=C/[C@H](C)[C@H]1O [III-i]						830				600	1100									
CO[C@H]1C[C@H](C)Cc2cc(cc(Cl)c2O)NC(=O)/C(C)=C/CC[C@H](OC)[C@@H](OC(N)=O)/C(C)=C/[C@H](C)[C@H]1O [III-a]		90	640 to 1400		39	36 to 145	42			53 to 60		42		74		57	102 to 170		remained substantially unchanged	Hsp70 was induced
CO[C@H]1/C=C\C=C(/C)C(=O)Nc2ccc(O)c(c2)C[C@@H](C)C[C@H](OC)[C@H](O)[C@@H](C)/C=C(\C)[C@@H]1OC(N)=O [IV-a]						90					177									
CO[C@H]1/C=C\C=C(/C)C(=O)Nc2cc(Cl)c(O)c(c2O)C[C@@H](C)C[C@H](OC)[C@H](O)[C@@H](C)/C=C(\C)[C@@H]1OC(N)=O [IV-b]	815	450	10000			400 to 444	440				840	240		1400		140	340 to 360			
CO[C@H]1C[C@H](C)Cc2cccc(c2)NC(=O)/C(C)=C/CC[C@H](OC)[C@@H](OC(N)=O)/C(C)=C/[C@H](C)[C@H]1O [III-h]						90 to 110				138 to 140	240 to 242		220				318	180		
